Experimental data reported in patent publication US20070015828A1 (Wyeth, priority 2005, published 2007).

Legend:
[1] = In vitro metabolism in hepatic microsomes, rat; assay type: in vitro ADME; conditions: Sprague-Dawley rats, read-out: t1/2 in hepatic microsomes
Method: (§1) In vitro metabolism of 1-[2-dimethylamino-1-(4-phenol)ethyl]-cis-1,4-cyclohexandiol was conducted in the hepatic microsomes of Sprague-Dawley rats, male dogs, male monkeys and mixed male and female humans to characterize metabolic stability and identification of metabolites. 1-[2-dimethylamino-1-(4-phenol)ethyl]-cis-1,4-cyclohexandiol was stable (t1/2>60 minutes) in hepatic microsomes indicating Phase I and II metabolism was minimal in all species.

Adenosine A1 = assay: Receptor binding assay: Adenosine A1; conditions: Test Compound @ 10 1 M
[2] = system: Glycine, Strychnine-sensitive; assay: Receptor binding assay: Glycine strychnine-sensitive; conditions: Test Compound @ 10 1 M
[3] = target: Adrenergic, Alpha 2C (hr) (Homo sapiens, UniProt P18825); assay: Receptor binding assay: Adrenergic Alpha 2C; conditions: Test Compound @ 10 1 M
Sequence of Adrenergic, Alpha 2C (hr) (P18825 whole entry): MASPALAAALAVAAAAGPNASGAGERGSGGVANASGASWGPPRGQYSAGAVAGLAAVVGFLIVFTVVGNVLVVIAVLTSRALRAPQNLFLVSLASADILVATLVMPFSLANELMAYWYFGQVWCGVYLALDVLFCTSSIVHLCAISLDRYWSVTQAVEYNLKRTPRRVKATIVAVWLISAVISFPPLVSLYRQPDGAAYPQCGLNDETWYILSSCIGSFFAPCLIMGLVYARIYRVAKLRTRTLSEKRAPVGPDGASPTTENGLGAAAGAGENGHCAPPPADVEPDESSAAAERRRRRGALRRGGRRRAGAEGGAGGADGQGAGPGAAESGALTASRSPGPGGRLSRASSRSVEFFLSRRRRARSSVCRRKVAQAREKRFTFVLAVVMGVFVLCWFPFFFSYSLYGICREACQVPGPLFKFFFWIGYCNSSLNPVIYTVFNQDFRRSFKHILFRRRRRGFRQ

Adrenergic, Alpha 2A (h) = target: T1, Adrenergic, Alpha 2A (h) (Homo sapiens, UniProt P08913); assay: Receptor binding assay: Adrenergic Alpha 2A; conditions: Test Compound @ 10 1 M
T1 construct: Novascreen (assay provider)
T1 sequence (P08913 whole entry): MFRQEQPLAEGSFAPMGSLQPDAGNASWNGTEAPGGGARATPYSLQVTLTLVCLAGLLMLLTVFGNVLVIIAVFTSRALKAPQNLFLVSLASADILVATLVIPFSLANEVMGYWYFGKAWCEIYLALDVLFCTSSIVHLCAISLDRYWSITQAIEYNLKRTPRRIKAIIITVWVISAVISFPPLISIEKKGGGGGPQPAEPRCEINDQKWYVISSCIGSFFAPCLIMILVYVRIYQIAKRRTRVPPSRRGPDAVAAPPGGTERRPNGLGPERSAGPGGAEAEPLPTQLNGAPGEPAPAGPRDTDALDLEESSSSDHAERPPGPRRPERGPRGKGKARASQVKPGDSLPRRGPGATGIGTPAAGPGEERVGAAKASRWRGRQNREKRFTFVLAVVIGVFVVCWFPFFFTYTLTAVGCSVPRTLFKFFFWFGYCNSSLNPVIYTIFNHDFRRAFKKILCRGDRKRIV

Adrenergic, Beta 2 (hr) = Adrenergic, Beta 2 (hr) (Homo sapiens, UniProt P07550); assay: Receptor binding assay: Adrenergic Beta 2; conditions: Test Compound @ 10 1 M
Sequence of Adrenergic, Beta 2 (hr) (P07550 whole entry): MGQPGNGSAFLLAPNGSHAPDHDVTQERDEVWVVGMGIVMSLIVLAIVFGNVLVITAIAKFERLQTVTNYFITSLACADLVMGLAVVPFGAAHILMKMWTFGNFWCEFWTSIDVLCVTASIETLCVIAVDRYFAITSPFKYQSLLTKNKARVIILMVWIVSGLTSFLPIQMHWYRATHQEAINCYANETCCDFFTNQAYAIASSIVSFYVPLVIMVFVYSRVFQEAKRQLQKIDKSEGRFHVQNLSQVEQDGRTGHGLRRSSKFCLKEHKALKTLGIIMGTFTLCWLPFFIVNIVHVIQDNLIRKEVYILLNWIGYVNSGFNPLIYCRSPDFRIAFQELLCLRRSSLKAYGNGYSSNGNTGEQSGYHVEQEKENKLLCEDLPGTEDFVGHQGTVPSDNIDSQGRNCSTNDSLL

Histamine, H3 = assay: Receptor binding assay: Histamine H3; conditions: Test Compound @ 10 1 M
Serotonin, 5HT6 (hr) = Serotonin, 5HT6 (hr) (Homo sapiens, UniProt P50406); assay: Receptor binding assay: Serotonin 5HT6; conditions: Test Compound @ 10 1 M
Sequence of Serotonin, 5HT6 (hr) (P50406 whole entry): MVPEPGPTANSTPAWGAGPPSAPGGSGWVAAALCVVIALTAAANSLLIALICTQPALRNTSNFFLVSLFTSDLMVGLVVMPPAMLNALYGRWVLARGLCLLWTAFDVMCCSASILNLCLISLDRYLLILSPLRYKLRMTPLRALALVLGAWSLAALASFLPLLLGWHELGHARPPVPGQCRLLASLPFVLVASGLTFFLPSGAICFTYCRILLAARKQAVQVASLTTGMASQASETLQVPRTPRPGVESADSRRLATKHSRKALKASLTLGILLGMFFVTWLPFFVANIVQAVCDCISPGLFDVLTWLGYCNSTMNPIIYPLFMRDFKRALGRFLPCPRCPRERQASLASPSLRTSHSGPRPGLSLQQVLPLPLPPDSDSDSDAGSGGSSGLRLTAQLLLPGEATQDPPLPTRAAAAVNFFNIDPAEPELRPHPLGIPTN

GABA A, Agonist site = assay: Receptor binding assay: GABA A agonist site; conditions: Test Compound @ 10 1 M
Serotonin, 5HT4 = assay: Receptor binding assay: Serotonin 5HT4; conditions: Test Compound @ 10 1 M
Imidazoline, I2 central = assay: Imidazoline binding assay: I2 central; conditions: Test Compound @ 10 1 M
pH-Solubility = assay type: physicochemical; conditions: free base
Dopamine Transporter = assay: Dopamine transporter binding assay; conditions: Test Compound @ 10 1 M
[4] = In vitro metabolism in hepatic microsomes, monkey; assay type: in vitro ADME; conditions: male monkeys, read-out: t1/2 in hepatic microsomes
Method: as §1

Cannabinoid, CB1 (hr) = Cannabinoid, CB1 (hr) (Homo sapiens, UniProt P21554); assay: Receptor binding assay: Cannabinoid CB1; conditions: Test Compound @ 10 1 M
Sequence of Cannabinoid, CB1 (hr) (P21554 whole entry): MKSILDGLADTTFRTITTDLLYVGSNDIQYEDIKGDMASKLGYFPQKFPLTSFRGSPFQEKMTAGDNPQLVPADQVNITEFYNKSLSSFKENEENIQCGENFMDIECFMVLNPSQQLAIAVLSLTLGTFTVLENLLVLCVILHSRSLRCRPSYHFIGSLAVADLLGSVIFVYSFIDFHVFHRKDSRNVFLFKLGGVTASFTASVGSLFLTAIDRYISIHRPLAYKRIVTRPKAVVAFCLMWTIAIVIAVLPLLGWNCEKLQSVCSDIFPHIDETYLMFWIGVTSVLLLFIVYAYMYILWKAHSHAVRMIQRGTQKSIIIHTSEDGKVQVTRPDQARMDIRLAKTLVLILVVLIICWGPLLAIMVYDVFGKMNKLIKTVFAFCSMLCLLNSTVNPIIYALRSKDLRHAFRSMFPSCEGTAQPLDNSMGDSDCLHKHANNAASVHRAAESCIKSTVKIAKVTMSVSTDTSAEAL

Adrenergic, Alpha 1B = assay: Receptor binding assay: Adrenergic Alpha 1B; conditions: Test Compound @ 10 1 M
Melatonin = assay: Receptor binding assay: Melatonin; conditions: Test Compound @ 10 1 M
[5] = system: spinal nerve ligation model of neuropathic pain, mechanical hyperalgesia; assay: Spinal nerve ligation model of neuropathic pain, mechanical hyperalgesia; assay type: in vivo; conditions: rat
Method: 1-[2-dimethylamino-1-(4-phenol)ethyl]-cis-1,4-cyclohexandiol was dissolved in sterile saline and administered orally (p.o.) at dosages of 10 mg/kg, 30 mg/kg and 100 mg/kg. Gabapentin was purchased from Toronto Research Chemicals (Ontario, Canada) and suspended in 2% Tween 80 in 0.5% methylcellulose and administered intraperitoneally (i.p.).
For the visceral pain study male CD-1 mice (20-25 g, Charles River; Kingston/Stoneridge, NY) were housed in groups of 5/cage on bedding and for the neuropathic study male Sprague-Dawley rats (125-150 g, Harlan; Indianapolis, Ind.) were housed 3/cage on bedding. For all studies animals were maintained in climate-controlled rooms on a 12-hour light/dark cycle (lights on at 0630) with food and water available ad libitum.
Surgical procedures were performed under 4% isoflurane/O2 anesthesia, delivered via nose cone and maintained at 2.5% for the duration of the surgery. After induction of anesthesia, the incision site was shaved and prepared in a sterile manner. […]
For the neuropathic model statistical significance was determined using a repeated measure ANOVA using a customized SAS-excel application (SAS Institute, Cary, N.C.). Significant main effects were analyzed further by subsequent least significant difference analysis. […]
Assessment of mechanical hyperalgesia thresholds were measured as the hind paw withdrawal threshold to a noxious mechanical stimulus and was determined using the paw pressure technique [Randall, L. O. and Selitto, J. J., A method for measurement of analgesic activity on inflamed tissue, Arch. […] Thresholds were evaluated prior to surgery and reassessed three weeks after SNL surgery. On test day, rats were administered vehicle or test compound mechanical thresholds assessed 1, 3, 5 and 24 hr after administration (n=10/group).

Muscarinic, M3 (hr) = target: T2, Muscarinic, M3 (hr) (Homo sapiens, UniProt P20309); assay: Receptor binding assay: Muscarinic M3; conditions: Test Compound @ 10 1 M
T2 construct: Novascreen (contract assay)
T2 sequence (P20309 whole entry): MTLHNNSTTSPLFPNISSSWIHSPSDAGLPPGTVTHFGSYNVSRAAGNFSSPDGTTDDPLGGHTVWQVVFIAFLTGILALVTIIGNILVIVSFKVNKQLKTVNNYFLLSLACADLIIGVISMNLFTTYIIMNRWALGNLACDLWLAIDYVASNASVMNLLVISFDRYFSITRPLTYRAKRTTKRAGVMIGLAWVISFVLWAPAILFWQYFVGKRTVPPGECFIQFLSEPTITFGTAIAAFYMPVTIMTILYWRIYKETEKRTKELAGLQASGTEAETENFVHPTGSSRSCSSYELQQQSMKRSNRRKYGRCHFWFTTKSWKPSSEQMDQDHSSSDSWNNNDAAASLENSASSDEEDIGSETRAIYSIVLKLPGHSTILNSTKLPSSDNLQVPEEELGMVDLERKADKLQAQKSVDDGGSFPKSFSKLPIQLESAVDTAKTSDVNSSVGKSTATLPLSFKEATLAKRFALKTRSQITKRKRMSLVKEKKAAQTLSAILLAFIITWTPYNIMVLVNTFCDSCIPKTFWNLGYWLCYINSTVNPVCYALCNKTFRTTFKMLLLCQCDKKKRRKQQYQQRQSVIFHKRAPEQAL

Glutamate, NMDA Glycine = assay: Receptor binding assay: Glutamate NMDA Glycine; conditions: Test Compound @ 10 1 M
Glutamate, Kainate Site = assay: Receptor binding assay: Glutamate Kainate site; conditions: Test Compound @ 10 1 M
Hygroscopicity = assay type: physicochemical
Cannabinoid, CB2 (hr) = Cannabinoid, CB2 (hr) (Homo sapiens, UniProt P34972); assay: Receptor binding assay: Cannabinoid CB2; conditions: Test Compound @ 10 1 M
Sequence of Cannabinoid, CB2 (hr) (P34972 whole entry): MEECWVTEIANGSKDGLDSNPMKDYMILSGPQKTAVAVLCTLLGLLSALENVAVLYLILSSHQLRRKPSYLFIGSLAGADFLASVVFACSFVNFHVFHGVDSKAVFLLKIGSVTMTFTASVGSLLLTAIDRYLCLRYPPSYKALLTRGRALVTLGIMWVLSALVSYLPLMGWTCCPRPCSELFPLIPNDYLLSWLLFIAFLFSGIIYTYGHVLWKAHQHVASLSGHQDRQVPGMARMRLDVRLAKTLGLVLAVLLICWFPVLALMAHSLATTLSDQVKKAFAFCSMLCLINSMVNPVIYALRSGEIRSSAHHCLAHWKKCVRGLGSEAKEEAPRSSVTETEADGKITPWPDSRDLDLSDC

Adrenergic, Beta 1 (hr) = Adrenergic, Beta 1 (hr) (Homo sapiens, UniProt P08588); assay: Receptor binding assay: Adrenergic Beta 1; conditions: Test Compound @ 10 1 M
Sequence of Adrenergic, Beta 1 (hr) (P08588 whole entry): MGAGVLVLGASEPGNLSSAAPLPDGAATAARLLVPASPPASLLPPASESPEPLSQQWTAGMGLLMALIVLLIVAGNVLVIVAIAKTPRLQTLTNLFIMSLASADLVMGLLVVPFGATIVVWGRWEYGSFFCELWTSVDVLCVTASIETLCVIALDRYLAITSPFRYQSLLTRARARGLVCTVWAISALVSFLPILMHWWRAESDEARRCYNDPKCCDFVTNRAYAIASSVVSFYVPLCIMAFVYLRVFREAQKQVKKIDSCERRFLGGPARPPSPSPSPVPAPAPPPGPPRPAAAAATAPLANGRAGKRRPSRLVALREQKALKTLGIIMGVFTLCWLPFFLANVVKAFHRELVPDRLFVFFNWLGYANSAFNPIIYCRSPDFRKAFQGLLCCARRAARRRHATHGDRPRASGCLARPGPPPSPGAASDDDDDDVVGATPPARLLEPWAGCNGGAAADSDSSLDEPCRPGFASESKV

Adrenergic, Alpha 2B = assay: Receptor binding assay: Adrenergic Alpha 2B; conditions: Test Compound @ 10 1 M
Muscarinic, MS (hr) = target: T3, Muscarinic, MS (hr) (Homo sapiens, UniProt P08912); assay: Receptor binding assay: Muscarinic MS; conditions: Test Compound @ 10 1 M
T3 construct: Novascreen (contract assay)
T3 sequence (P08912 whole entry): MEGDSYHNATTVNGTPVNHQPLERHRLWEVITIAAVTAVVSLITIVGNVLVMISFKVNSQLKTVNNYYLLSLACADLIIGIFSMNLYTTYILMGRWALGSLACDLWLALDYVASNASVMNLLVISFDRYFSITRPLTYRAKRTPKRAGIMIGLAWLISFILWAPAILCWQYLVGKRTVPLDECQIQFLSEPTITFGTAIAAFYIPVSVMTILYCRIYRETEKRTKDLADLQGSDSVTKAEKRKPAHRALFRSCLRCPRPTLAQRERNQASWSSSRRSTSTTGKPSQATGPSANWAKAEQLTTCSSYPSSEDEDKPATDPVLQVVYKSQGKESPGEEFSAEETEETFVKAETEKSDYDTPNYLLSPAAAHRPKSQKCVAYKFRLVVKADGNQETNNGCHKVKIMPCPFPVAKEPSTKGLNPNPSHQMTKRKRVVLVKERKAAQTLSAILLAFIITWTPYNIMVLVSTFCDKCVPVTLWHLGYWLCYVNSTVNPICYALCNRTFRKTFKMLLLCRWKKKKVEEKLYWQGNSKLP

Sigma 1 = assay: Receptor binding assay: Sigma 1; conditions: Test Compound @ 10 1 M

## CN(C)CC(c1ccc(O)cc1)C1(O)CCC(O)CC1 (stereo not drawn) [1-[2-dimethylamino-1-(4-phenol)ethyl]-cis-1,4-cyclohexandiol]
[1]
  half-life: > 1 h
Adenosine A1
  Receptor Binding % Inhibition: −8.51%
[2]
  Receptor Binding % Inhibition: −2.38%
[3]
  inhibition at 10 µM: 3.06%
Adrenergic, Alpha 2A (h)
  inhibition at 10 µM: 10.4%
Adrenergic, Beta 2 (hr)
  inhibition at 10 µM: -2.46%
Histamine, H3
  Receptor Binding % Inhibition: 14.00%
Serotonin, 5HT6 (hr)
  inhibition at 10 µM: 17.1%
GABA A, Agonist site
  Receptor Binding % Inhibition: −16.06%
Serotonin, 5HT4
  Receptor Binding % Inhibition: 3.98%
Imidazoline, I2 central
  Receptor Binding % Inhibition: 3.24%
pH-Solubility; Final pH 1.4
  pH-Solubility: Final pH 1.4 24.2 mg/ml
pH-Solubility; Final pH 3.99
  pH-Solubility: Final pH 3.99 24.1 mg/ml
pH-Solubility; Final pH 5.79
  pH-Solubility: Final pH 5.79 26.7 mg/ml
pH-Solubility; Final pH 8.4
  pH-Solubility: Final pH 8.4 22.7 mg/ml
Dopamine Transporter
  Receptor Binding % Inhibition: 8.49%
[4]
  half-life: > 1 h
Cannabinoid, CB1 (hr)
  inhibition at 10 µM: 8.11%
Adrenergic, Alpha 1B
  Receptor Binding % Inhibition: 11.27%
Melatonin
  Receptor Binding % Inhibition: 11.20%
[5]; 10 and 30 mg/kg
  effect versus the SNL/vehicle: positive trend
[5]; spinal nerve ligation, p.o.
  MED, reversal of mechanical hyperalgesia: 10 mg/kg
  reversal of mechanical hyperalgesia: statistically significant reversal
Muscarinic, M3 (hr)
  inhibition at 10 µM: 0.11%
Glutamate, NMDA Glycine
  Receptor Binding % Inhibition: 2.24%
Glutamate, Kainate Site
  Receptor Binding % Inhibition: −0.51%
Hygroscopicity
  Hygroscopicity: Non-hygroscopic
Hygroscopicity; at 26.30C/90% RH, weight gain is lost upon reduction in % RH
  Hygroscopicity, weight gain: < 2%
Cannabinoid, CB2 (hr)
  inhibition at 10 µM: 15.7%
Adrenergic, Beta 1 (hr)
  inhibition at 10 µM: 7.65%
Adrenergic, Alpha 2B
  Receptor Binding % Inhibition: 8.60%
Muscarinic, MS (hr)
  inhibition at 10 µM: 5.4%
Sigma 1
  Receptor Binding % Inhibition: 2.96%
